87 compounds from a melting point compilation (Tetko et al.; mined from patent text by program, amines drawn as free bases though some values may be those of a salt) can be followed below.

Regarding `CCOC(=O)C(C)(Cc1cccnc1)S(=O)(=O)c1ccc(OC)cc1` (configuration not stated), the melting point – broadly, the temperature of the solid-liquid transition – was 58 °C.

Regarding `O=C(O)c1cccc(-n2cnc3cc(-c4ccccc4)ccc32)c1`, the melting point is 289 to 291 °C. Regarding `N=C(Nc1cccc(NC(=O)/C=C/c2cccc(Cl)c2)c1)c1ccccc1`, the melting point lay within 260 to 262 °C. Take `COC(=O)CCc1cc(C)on1`: the melting point was 54 to 55 °C. In the case of `Cc1cc(C)nc(NC(=O)NS(=O)(=O)c2cccc3c2OC(C)(C)C3)n1` it was 203 to 206 °C; in that of `Fc1cccc(F)c1COc1cccnc1NC(=S)Nc1ccccc1`, 132 to 133 °C. With `Oc1cc(-c2ccccc2)cc(-c2ccccc2)c1`, the melting point was determined as 97 °C.

For the compound `COc1ccccc1[C@H](c1cccc2ccccc12)[C@@](C)(C#N)C(=O)N1CC=C(c2c[nH]c3ccccc23)CC1`, the melting point was 229 to 231 °C. Regarding `COc1ccc(CN2CCc3cc(OCc4ccccc4)c(OC)cc3C2)cc1`, the melting point lay in the range of 96 to 97 °C. Take `COc1ccc(C=C2N=C(c3ccc([N+](=O)[O-])cc3)OC2=O)cc1OC`: the melting point is 265 to 267 °C. As for `CS(=O)(=O)NCc1ccc2[nH]cc(C(=O)C(=O)N3CCCC3)c2c1`, the melting point lay within 235 to 236 °C. The figure for `Cc1cccc(-n2cnc(OC(C)C(=O)O)n2)c1` (configuration not stated) is 155 to 157 °C; for `COc1ccc(S(=O)(=O)N2CCC(N3N=C(c4ccc(OC)c(OC)c4)CCC3=O)CC2)cc1` it is 197 to 198 °C; for `CC1=C(CNC(=O)NCCCN(C)C)c2cc(F)ccc2/C1=C\c1ccc(S(C)(=O)=O)cc1` it is 147 °C. On to `CCOCc1nc2c(N)nc3cc(-c4ccc(F)nc4)cnc3c2n1CC(C)(C)O`, for which the melting point lay within 218 to 220 °C.

Take `CC(C)(C)OC(=O)N1CCc2ccc(C(=O)NC3COCCn4c3nc(-c3ccncn3)cc4=O)cc2C1` (racemic): the melting point was 252 to 254 °C. The figure for `CCCCCCCNCCCCCO` is 47 to 48 °C; for `O=C(O)c1cccc(-c2coc3c(O)c(O)ccc3c2=O)c1` it is 313 to 314 °C. In turn, `CC(=O)Nc1ccc(Cl)c(O)c1` gave a melting point of 212 °C. In the case of `O=C(NC1CCCCC1)NS(=O)(=O)c1ccc2c(c1)CCN(C(=O)N1CCCCCC1)CC2` it was 155 to 156 °C. As for `CCCCCCSc1cc(SCCCCCC)c2ccc3c(SCCCCCC)cc(SCCCCCC)c4ccc1c2c43`, the melting point is 92 °C. Regarding `Cc1ccnc(CO)c1Br`, the melting point was 75 to 77 °C. The figure for `Cn1nnnc1-c1cccc(CCl)c1` is 63 to 65 °C; for `O=C(O)CCCc1cc2cc(Cl)ccc2n1S(=O)(=O)c1ccc2ccccc2c1` it is 166 °C.

Compound `OC[C@@H]1C[C@@H](C2CCCCC2)CN1` returned a melting point of 98 to 99 °C. In the case of `CN(C)C=CC(=O)c1ccc(C(=O)N2Cc3ccnn3Cc3ccccc32)cc1` it was 225 to 230 °C; in that of `CC1(C)Oc2ccc([N+](=O)[O-])cc2C(n2ccccc2=O)=C1CN`, 231 °C. In the case of `CCOC(=O)c1ccc(NC(=O)c2ccc3c(c2)OCC(C)(C)CO3)cc1` it was 181 to 182 °C; in that of `COc1cc(C)nc(NC(=O)NS(=O)(=O)c2ccccc2CCSC#N)n1`, 161 to 165 °C. Turning to `CN1CCC23c4c5ccc(O)c4OC2C(OC2OC(C(=O)O)C(O)C(O)C2O)C=CC3C1C5` (configuration not stated), the melting point is 240 to 243 °C. The figure for `NC(=O)CNC(=O)c1cccc(-c2cccc3cc(CCc4cccc(C(F)(F)F)c4)sc23)c1` is 153 to 154 °C. The compound `CCCCc1cn2ccccc2c1S(=O)(=O)c1ccc(OCCCBr)cc1` came in with a melting point of 119 °C. In turn, `Cc1ccc(C(=O)C2=C(O)C(=O)N(c3ccc(C)nn3)C2c2ccc(OCCN(C)C)cc2)cc1` (configuration not stated) came in with a melting point of 263 to 266 °C. In the case of `COc1cc(N2CCOCC2)ccc1Nc1nc(Nc2ccc3c(c2OC)CCCC(=O)N3)ncc1Cl` it was 248 to 249 °C; in that of `CCOC(=O)C1=CCCCC1S(=O)(=O)Nn1cccc1C` (configuration not stated), 100 to 101 °C. In turn, `COc1ccc(CC(C(N)=O)S(C)=O)cc1C(=O)NCc1ccc(C(F)(F)F)cc1` (configuration not stated) yielded a melting point of 170 to 171 °C. Compound `Cc1c(C(=O)Nc2ncc(CO)s2)nnn1Cc1ccc(Cl)c(Cl)c1` gave a melting point of 170 °C. The figure for `COc1ccc(F)cc1C(C)(C)CC(O)(CN1CCSc2ccccc21)C(F)(F)F` (configuration not stated) is 103 to 104 °C; for `CN(C)Cc1cnc2n1-c1ccc(Cl)cc1C(c1ccccc1)=NC2` it is 181 to 182 °C; for `CC(C)NC(=O)c1ccc(C(=O)N2CCN(c3ncccc3N)CC2)nc1` it is 142 to 143 °C. The figure for `CC(C)(C)NC(=O)[C@@H]1CC(OCCCCF)CN1C(=O)[C@@H](O)[C@H](Cc1ccccc1)NC(=O)[C@H](CC(N)=O)NC(=O)OCc1ccccc1` (some centres not stated) is 68 to 71 °C; for `CC=C1C=C(OC)N=C(N)N1` it is 119 to 122 °C; for `CC(=O)Nc1cc2c(cc1[N+](=O)[O-])OCCCO2` it is 139 to 140 °C. Turning to `CCOC(=O)CCCCCCCn1c(=O)[nH]c2ccccc2c1=O`, the melting point is 88 to 89 °C.

Consider `CS(=O)(=O)Nc1ccc(Cn2c(=O)n(Cc3ccc(C(F)(F)F)cc3)c3ccccc32)cc1`, for which the melting point was in the range of 193 to 197 °C. As to `CCOC(=O)c1cc(-c2nn3c(c2Cl)CCCC3)c(F)cc1Cl`, the melting point lay in the range of 72 to 73 °C. In the case of `Cc1cccc(C)c1NS(=O)(=O)c1cc(S(=O)(=O)Nc2c(C)cccc2C)c2cc(O)ccc2c1` it was 162 to 164 °C. `Cn1ncc(C2=CC(=O)CCC2)c1S(N)(=O)=O` registered a melting point of 160 to 165 °C. The figure for `O=C(O)Cc1cnc2c(NC(=O)c3c(Cl)cccc3Cl)cccc2c1` is above 250 °C. The figure for `O=[N+]([O-])c1ccc2[nH]cc(C3=CCC4(CC3)OCCO4)c2c1` is 175 to 177 °C; for `CCNc1c(C(=O)OCC)c(=O)n(CC)c2nc(C)ccc12` it is 133 to 136 °C.

Turning to `CC(C)CN1CCN(C(=O)c2ccc(OCc3ccccc3)cc2)CC1`, the melting point lay in the range of 77.6 to 78.4 °C.

For `Cc1cc(C)nc(-n2cnc(S(=O)(=O)Nc3c(Cl)cccc3Cl)n2)n1`, the melting point was in the range of 274 to 275 °C. The compound `Fc1c(F)c(F)c(OC2(c3ccccc3)CCN(Cc3ccccc3)CC2)c(F)c1F` showed a melting point of 80 to 83 °C. The figure for `CCCc1nc2c(N)nc3ccccc3c2n1CC1(O)CCN(C)CC1` is 241 to 242 °C. In the case of `COC(=O)c1ccc(OCC2CN(c3ccc(Cl)cc3)C(=O)O2)cc1` (configuration not stated) it was 146 to 148 °C; in that of `[O-][N+](=CC=Cc1ccccc1)c1ccccc1`, 150 to 152 °C; in that of `Brc1ccc(Nc2ncc3cc4ccccc4n3n2)cc1`, 237 to 243 °C.

`c1ccc(Nc2ccc(-c3ccc(N(c4ccccc4)c4ccc(-c5ccccc5)cc4)cc3)cc2)cc1`: the melting point turned out to be 127 °C. The figure for `CC(C)(C)C(=O)OC(COc1cccc2[nH]ccc12)CN1CCC(COc2ccccc2)CC1` (configuration not stated) is 103 to 105 °C. In the case of `Oc1c2c(c3nccc4c3c1CCC4)CCCC2` it was 224 °C. In the case of `COc1ccc(-n2nc(Cl)cc2-c2ccc(OCCNC(N)=O)cc2)cc1` it was 140 to 142 °C; in that of `CCc1cc(NC(=O)N2CCN(c3ccsc3)CC2)c(OC)nc1C`, 108 to 110 °C.

Consider `C=CC(=O)Nc1ccc2c(Nc3cccc(C)c3)ncnc2c1`, for which the melting point was found to be 270 °C. The figure for `CCCCc1nc2c(N)nc3ccccc3c2n1CCCNC(=O)N1CCOCC1` is 193 to 195 °C; for `O=C(O)c1cc(OCC(=O)c2ccccc2)cc(C(F)(F)F)c1` it is 180 to 182 °C. The figure for `CCc1nc2c(C)c(S(=O)(=O)N(C)C)c(C)nc2[nH]1` is 179 to 182 °C. `CC(CCC(=O)O)C(=O)NC1(C(=O)O)CCCC1` (configuration not stated) displayed a melting point of 170 to 172 °C. The figure for `CC(=O)OI(OC(C)=O)c1ccc(-c2ccc(Cl)cc2)cc1` is 147 to 150 °C; for `O=C1OC(c2ccccc2)CN1Sc1ccc(Cl)cc1` (configuration not stated) it is 98 to 99 °C; for `COc1ccc(Cn2c(=O)n([C@H]3CC[C@H](O)CC3)c3ccc(C(F)(F)F)cc32)cc1OC` it is 108 to 110 °C.

As for `COc1ncnc(-c2ccc(Cl)cc2Cl)c1C#N`, the melting point was in the range of 107 to 109 °C. Compound `O=C(c1cc(C2=CC3CCC(C2)N3)ccn1)N(O)Cc1ccccc1` (configuration not stated) showed a melting point of 95 to 100 °C. The figure for `O[C@@H]1[C@H](O)CS[C@H]1n1cnc2c(NCc3cccc(I)c3)ncnc21` is 199 to 200 °C; for `O=C1NC(=O)C(=Cc2ccc(N3CCC(NC[C@H](O)COc4cccc5[nH]c(=O)[nH]c45)CC3)c(F)c2)S1` it is 162 to 164 °C.

`C=CCCn1cnc2c1c(=O)[nH]c(=O)n2C` had a melting point of 245 to 246 °C. In the case of `Cc1c(-c2ccc(O)cc2)nnn1-c1ccc(C(F)(F)F)cc1Cl` it was 176 to 177 °C. As for `Cc1nn(CC(O)c2ccc(Cl)cc2)c(=O)n1-c1ccc(N2CCN(c3ncc(O)cn3)CC2)cc1` (configuration not stated), the melting point was found to be 244 °C. In the case of `CC(C)(C)OC(=O)N1CC[C@@H]2Nc3cccc(Br)c3[C@@H]2CC1` (relative stereo) it was 124 °C; in that of `CCC1(C)CC2(C(=O)N(C)C(=O)N2C)C(C)C(C)(CC)N1C` (configuration not stated), 77 to 88 °C; in that of `CCN(CC)CCNC(=O)c1cc(Cl)c(N)cc1OCC(C)=O`, 105 to 106 °C. The figure for `Cc1ccc2c(c1)N(CC(=O)c1cccs1)C(=O)C(NC(=O)Nc1cccc(C(=O)O)c1)CN2C(=O)C(C)(C)C` (configuration not stated) is 198 to 206 °C. Turning to `COc1ccc(C(=O)c2ccc(-n3ccnc3)cc2)cc1OC`, the melting point lay in the range of 149 to 151 °C. In the case of `Fc1cc(N2CCNCC2)c2ncccc2c1`, the melting point was 103 °C. In turn, `Cc1cc2c(nc1C(O)c1cccc(Cl)c1)CCCCC2` (configuration not stated) registered a melting point of 123 to 125 °C. The compound `CN1CCN(C(=O)OC2c3ccc(C(F)(F)F)cc3C(=O)N2c2ccc3ccc(Cl)nc3n2)CC1` (configuration not stated) returned a melting point of 219 °C. The figure for `CC(Nc1nc(-c2ccccc2)cs1)c1ccc(CO)cc1` (configuration not stated) is 88 to 90 °C.
